System: MV-4-11 cells
Assay: Gene expression microarray analysis (Affymetrix PrimeView) and GSEA
Format: cell-based, human
Parameters: RFU PODN (11730768_x_at) / Fold change /veh PODN (11730768_x_at) / RFU LINC00158 (11744669_a_at) / Fold change /veh LINC00158 (11744669_a_at) / RFU DUSP10 (11751237_a_at) / Fold change /veh DUSP10 (11751237_a_at) / RFU ID3 (11757404_x_at) / Fold change /veh ID3 (11757404_x_at) / RFU PLEKHG5 (11737974_s_at) / Fold change /veh PLEKHG5 (11737974_s_at) / RFU LRRC4B (11730491_at) / Fold change /veh LRRC4B (11730491_at) / RFU GIMAP4 (11747438_a_at) / Fold change /veh GIMAP4 (11747438_a_at) / RFU KRT8 (11758183_x_at) / Fold change /veh KRT8 (11758183_x_at) / RFU CNN1 (11734310_a_at) / Fold change /veh CNN1 (11734310_a_at) / RFU VPS37D (11726825_at) / Fold change /veh VPS37D (11726825_at) / RFU C10orf10 (11716522_x_at) / Fold change /veh C10orf10 (11716522_x_at) / RFU KIR2DL2 /// KIR2DL4 /// KIR2DL5A /// KIR2DL5B /// KIR2DS1 /// KIR2DS2 /// KIR2DS3 /// KIR2DS4 /// KIR3DL3 /// KIR3DL3 /// KIR3DS1 (11738374_at) / Fold change /veh KIR2DL2 /// KIR2DL4 /// KIR2DL5A /// KIR2DL5B /// KIR2DS1 /// KIR2DS2 /// KIR2DS3 /// KIR2DS4 /// KIR3DL3 /// KIR3DL3 /// KIR3DS1 (11738374_at) / RFU C1QL1 (11718748_at) / Fold change /veh C1QL1 (11718748_at) / RFU TMPRSS4 (11747572_a_at) / Fold change /veh TMPRSS4 (11747572_a_at) / RFU HAMP (11756126_x_at) / Fold change /veh HAMP (11756126_x_at) / RFU RNFT2 (11725882_a_at) / Fold change /veh RNFT2 (11725882_a_at) / RFU NR4A2 (11747474_a_at) / Fold change /veh NR4A2 (11747474_a_at) / RFU ABCC12 (11746883_a_at) / Fold change /veh ABCC12 (11746883_a_at) / RFU TMEM136 (11760407_x_at) / Fold change /veh TMEM136 (11760407_x_at) / RFU CLDN22 /// WWC2 (11732394_at) / Fold change /veh CLDN22 /// WWC2 (11732394_at) / RFU HLA-DPB1 (11760878_x_at) / Fold change /veh HLA-DPB1 (11760878_x_at) / RFU SPINT1 (11716480_a_at) / Fold change /veh SPINT1 (11716480_a_at) / RFU GAP43 (11754022_s_at) / Fold change /veh GAP43 (11754022_s_at) / RFU A4GNT (11735810_at) / Fold change /veh A4GNT (11735810_at) / RFU PRB3 (11715151_x_at) / Fold change /veh PRB3 (11715151_x_at) / RFU TUBB4B (11761932_at) / Fold change /veh TUBB4B (11761932_at) / RFU CAPN14 (11732068_a_at) / Fold change /veh CAPN14 (11732068_a_at) / RFU TMCC2 (11721928_a_at) / Fold change /veh TMCC2 (11721928_a_at) / RFU IRGQ (11745062_a_at) / Fold change /veh IRGQ (11745062_a_at) / RFU FAM174B (11720279_a_at) / Fold change /veh FAM174B (11720279_a_at) / RFU TMPRSS4 (11748680_a_at) / Fold change /veh TMPRSS4 (11748680_a_at) / RFU FAM212B (11763350_a_at) / Fold change /veh FAM212B (11763350_a_at) / RFU PLEKHG5 (11743358_a_at) / Fold change /veh PLEKHG5 (11743358_a_at) / RFU ZSCAN30 (11745921_a_at) / Fold change /veh ZSCAN30 (11745921_a_at) / RFU CMKLR1 (11741424_a_at) / Fold change /veh CMKLR1 (11741424_a_at) / RFU LOC101060620 /// MAPK8IP1 (11723275_at) / Fold change /veh LOC101060620 /// MAPK8IP1 (11723275_at) / RFU SPTSSB (11747773_x_at) / Fold change /veh SPTSSB (11747773_x_at) / RFU PRSS12 (11739890_at) / Fold change /veh PRSS12 (11739890_at) / RFU BIN1 (11741810_x_at) / Fold change /veh BIN1 (11741810_x_at) / RFU WNT11 (11732464_a_at) / Fold change /veh WNT11 (11732464_a_at) / RFU C10orf10 (11716521_a_at) / Fold change /veh C10orf10 (11716521_a_at) / RFU C5orf56 (11738089_at) / Fold change /veh C5orf56 (11738089_at) / RFU CYB561 (11721691_x_at) / Fold change /veh CYB561 (11721691_x_at) / RFU ANKRD19P (11752326_a_at) / Fold change /veh ANKRD19P (11752326_a_at) / RFU OR2T12 /// OR2T33 /// OR2T8 (11738714_s_at) / Fold change /veh OR2T12 /// OR2T33 /// OR2T8 (11738714_s_at) / RFU VCAN (11748164_a_at) / Fold change /veh VCAN (11748164_a_at) / RFU JSRP1 (11732532_at) / Fold change /veh JSRP1 (11732532_at) / RFU KRTAP10-11 (11738290_x_at) / Fold change /veh KRTAP10-11 (11738290_x_at) / RFU MYO3A (11730013_a_at) / Fold change /veh MYO3A (11730013_a_at) / RFU EBF3 (11725865_a_at) / Fold change /veh EBF3 (11725865_a_at) / RFU CAMK2N1 (11719241_x_at) / Fold change /veh CAMK2N1 (11719241_x_at) / RFU C5orf56 (11738088_a_at) / Fold change /veh C5orf56 (11738088_a_at) / RFU OLFML3 (11715873_a_at) / Fold change /veh OLFML3 (11715873_a_at) / RFU LOC100653217 /// NTM (11731650_a_at) / Fold change /veh LOC100653217 /// NTM (11731650_a_at) / RFU MAPK11 (11762145_a_at) / Fold change /veh MAPK11 (11762145_a_at) / RFU FIZ1 (11724087_x_at) / Fold change /veh FIZ1 (11724087_x_at) / RFU OASL (11726364_x_at) / Fold change /veh OASL (11726364_x_at) / RFU SOX15 (11748057_x_at) / Fold change /veh SOX15 (11748057_x_at) / RFU CD79A (11719716_a_at) / Fold change /veh CD79A (11719716_a_at) / RFU HIST1H1D (11736915_at) / Fold change /veh HIST1H1D (11736915_at) / RFU CASKIN2 (11723855_a_at) / Fold change /veh CASKIN2 (11723855_a_at) / RFU LOC730098 (11760151_x_at) / Fold change /veh LOC730098 (11760151_x_at) / RFU OR4N2 (11742367_at) / Fold change /veh OR4N2 (11742367_at) / RFU PRRT2 (11749266_a_at) / Fold change /veh PRRT2 (11749266_a_at) / RFU SNX32 (11753110_a_at) / Fold change /veh SNX32 (11753110_a_at) / RFU CDHR5 (11726645_a_at) / Fold change /veh CDHR5 (11726645_a_at) / RFU RCAN1 (11760418_a_at) / Fold change /veh RCAN1 (11760418_a_at) / RFU FAM167A (11723789_a_at) / Fold change /veh FAM167A (11723789_a_at) / RFU FAM26E (11764081_at) / Fold change /veh FAM26E (11764081_at) / RFU ISYNA1 (11749810_s_at) / Fold change /veh ISYNA1 (11749810_s_at) / RFU ACY1 (11761880_at) / Fold change /veh ACY1 (11761880_at) / RFU 11764098_at / Fold change /veh 11764098_at / RFU SAMD14 (11745864_x_at) / Fold change /veh SAMD14 (11745864_x_at) / RFU NPB (11741838_a_at) / Fold change /veh NPB (11741838_a_at) / RFU TMPRSS6 (11731388_a_at) / Fold change /veh TMPRSS6 (11731388_a_at) / RFU KRTAP10-2 (11738614_at) / Fold change /veh KRTAP10-2 (11738614_at) / RFU ARHGAP8 /// PRR5-ARHGAP8 (11727945_x_at) / Fold change /veh ARHGAP8 /// PRR5-ARHGAP8 (11727945_x_at) / RFU KRTAP5-7 /// NADSYN1 (11734609_at) / Fold change /veh KRTAP5-7 /// NADSYN1 (11734609_at) / RFU RASL12 (11751679_a_at) / Fold change /veh RASL12 (11751679_a_at) / RFU CDKN2B (11736163_a_at) / Fold change /veh CDKN2B (11736163_a_at) / RFU PRF1 (11729649_at) / Fold change /veh PRF1 (11729649_at) / RFU, ZNF638 /// ZNF638-IT1 / Fold change vs veh, ZNF638 /// ZNF638-IT1 / RFU, PANK3 / Fold change vs veh, PANK3 / RFU, SH3YL1 / Fold change vs veh, SH3YL1 / RFU, ZEB2 / Fold change vs veh, ZEB2 / RFU, NRIP1 / Fold change vs veh, NRIP1 / RFU, PTTG1IP / Fold change vs veh, PTTG1IP / RFU, CAPN2 / Fold change vs veh, CAPN2 / RFU, MED14 / Fold change vs veh, MED14 / RFU, SNORA58 / Fold change vs veh, SNORA58 / RFU, C1orf63 / Fold change vs veh, C1orf63 / RFU, LRRFIP1 / Fold change vs veh, LRRFIP1 / RFU, NDUFAF7 / Fold change vs veh, NDUFAF7 / RFU, SLC12A2 / Fold change vs veh, SLC12A2 / RFU, IBTK / Fold change vs veh, IBTK / RFU, ESF1 / Fold change vs veh, ESF1 / Fold change vs veh, TMEM50B / RFU, TAOK1 / Fold change vs veh, TAOK1 / RFU, ACBD3 / Fold change vs veh, ACBD3 / RFU, TMA16 / Fold change vs veh, TMA16 / RFU, RWDD3 / Fold change vs veh, RWDD3 / RFU, BCAT1 / Fold change vs veh, BCAT1 / RFU, EDEM3 / Fold change vs veh, EDEM3 / RFU, TMEM33 / Fold change vs veh, TMEM33 / RFU, WDR75 / Fold change vs veh, WDR75 / RFU, AHCTF1 / Fold change vs veh, AHCTF1 / RFU, TFRC / Fold change vs veh, TFRC / RFU, ZDHHC17 / Fold change vs veh, ZDHHC17 / RFU, NOM1 / Fold change vs veh, NOM1 / RFU, ARL8B / Fold change vs veh, ARL8B / RFU, ZBTB11 / Fold change vs veh, ZBTB11 / RFU, TAMM41 / Fold change vs veh, TAMM41 / RFU, KIAA1704 /// LOC100996395 / Fold change vs veh, KIAA1704 /// LOC100996395 / RFU, ING1 / Fold change vs veh, ING1 / RFU, TRMT61B / Fold change vs veh, TRMT61B / RFU, FUBP3 / Fold change vs veh, FUBP3 / RFU, TP53 / Fold change vs veh, TP53 / RFU, TNKS2 / Fold change vs veh, TNKS2 / RFU, ZFP14 / Fold change vs veh, ZFP14 / RFU, ACTR2 / Fold change vs veh, ACTR2 / RFU, PPP3R1 / Fold change vs veh, PPP3R1 / RFU, PIK3R1 / Fold change vs veh, PIK3R1 / RFU, HNRNPA1 / Fold change vs veh, HNRNPA1 / RFU, RNF170 / Fold change vs veh, RNF170 / RFU, ZNF28 / Fold change vs veh, ZNF28 / RFU, RNGTT / Fold change vs veh, RNGTT / RFU, OGT / Fold change vs veh, OGT / RFU, BRD1 / Fold change vs veh, BRD1 / RFU, MARS / Fold change vs veh, MARS / RFU, ZNF655 / Fold change vs veh, ZNF655 / RFU, FAHD1 / Fold change vs veh, FAHD1 / RFU, BDP1 / Fold change vs veh, BDP1 / RFU, LRRCC1 / Fold change vs veh, LRRCC1 / RFU, ARID1A / Fold change vs veh, ARID1A / RFU, ZNF146 / Fold change vs veh, ZNF146 / RFU, ZNF330 / Fold change vs veh, ZNF330 / RFU, GPN3 / Fold change vs veh, GPN3 / RFU, C9orf123 / Fold change vs veh, C9orf123 / RFU, N4BP2L2 / Fold change vs veh, N4BP2L2 / RFU, ARFIP1 / Fold change vs veh, ARFIP1 / RFU, FAM179B / Fold change vs veh, FAM179B / RFU, BCL10 / Fold change vs veh, BCL10 / RFU, UHRF1BP1L / Fold change vs veh, UHRF1BP1L / RFU, BET1 / Fold change vs veh, BET1 / RFU, CNOT2 / Fold change vs veh, CNOT2 / RFU, ZNF268 / Fold change vs veh, ZNF268 / Fold change vs veh, ZNF507 / RFU, DGCR2 / Fold change vs veh, DGCR2 / RFU, WDSUB1 / Fold change vs veh, WDSUB1 / Fold change vs veh, HSP90B1 /// MIR3652 / RFU, ADSS / Fold change vs veh, ADSS / RFU, GK / Fold change vs veh, GK / RFU, ZNF148 / Fold change vs veh, ZNF148 / RFU, TAF9 / Fold change vs veh, TAF9 / RFU, SLC1A5 / Fold change vs veh, SLC1A5 / RFU, SLMO2 / Fold change vs veh, SLMO2 / RFU, ABCC4 / Fold change vs veh, ABCC4 / RFU, LOC101060439 /// RAP1B / Fold change vs veh, LOC101060439 /// RAP1B / RFU, RFX7 / Fold change vs veh, RFX7 / RFU, GTPBP10 / Fold change vs veh, GTPBP10 / RFU, CNEP1R1 / Fold change vs veh, CNEP1R1 / RFU, BIVM-ERCC5 /// ERCC5 / Fold change vs veh, BIVM-ERCC5 /// ERCC5 / RFU, ILF3 / Fold change vs veh, ILF3 / RFU 11762660_at / Fold change /veh 11762660_at / RFU VCAN (11757783_s_at) / Fold change /veh VCAN (11757783_s_at) / RFU DDX43 (11728927_at) / Fold change /veh DDX43 (11728927_at) / RFU KRT8 (11758188_x_at) / Fold change /veh KRT8 (11758188_x_at) / RFU NKD1 (11759106_at) / Fold change /veh NKD1 (11759106_at) / RFU SRD5A1 (11742802_a_at) / Fold change /veh SRD5A1 (11742802_a_at) / RFU TPSAB1 /// TPSB2 (11721975_s_at) / Fold change /veh TPSAB1 /// TPSB2 (11721975_s_at) / RFU GSTM3 (11746129_a_at) / Fold change /veh GSTM3 (11746129_a_at) / RFU IL23R (11737362_x_at) / Fold change /veh IL23R (11737362_x_at) / RFU TMEM51 (11727254_a_at) / Fold change /veh TMEM51 (11727254_a_at) / RFU PIWIL2 (11732686_x_at) / Fold change /veh PIWIL2 (11732686_x_at) / RFU ORM1 (11744905_x_at) / Fold change /veh ORM1 (11744905_x_at) / RFU CCDC152 (11743942_at) / Fold change /veh CCDC152 (11743942_at) / RFU ECM1 (11717891_a_at) / Fold change /veh ECM1 (11717891_a_at) / RFU IL23R (11748794_a_at) / Fold change /veh IL23R (11748794_a_at) / RFU TNFAIP8L3 (11732012_x_at) / Fold change /veh TNFAIP8L3 (11732012_x_at) / RFU MBOAT4 (11741988_at) / Fold change /veh MBOAT4 (11741988_at) / RFU 11764193_at / Fold change /veh 11764193_at / RFU TMEM53 (11763286_at) / Fold change /veh TMEM53 (11763286_at) / RFU MAGEB2 (11727129_at) / Fold change /veh MAGEB2 (11727129_at) / RFU TMEM200A (11744735_a_at) / Fold change /veh TMEM200A (11744735_a_at) / RFU CCDC152 (11751479_a_at) / Fold change /veh CCDC152 (11751479_a_at) / RFU FAM211A (11726209_a_at) / Fold change /veh FAM211A (11726209_a_at) / RFU RGS16 (11746705_a_at) / Fold change /veh RGS16 (11746705_a_at) / RFU VCAN (11755009_s_at) / Fold change /veh VCAN (11755009_s_at) / RFU RHOB (11743442_s_at) / Fold change /veh RHOB (11743442_s_at) / RFU RGS16 (11720943_a_at) / Fold change /veh RGS16 (11720943_a_at) / RFU RGS16 (11720944_at) / Fold change /veh RGS16 (11720944_at) / RFU, VPS4B / Fold change vs veh, VPS4B / RFU, CREB1 / Fold change vs veh, CREB1 / RFU, DNAJC13 / Fold change vs veh, DNAJC13 / RFU, GNAQ / Fold change vs veh, GNAQ / RFU, CDK5R1 / Fold change vs veh, CDK5R1 / RFU, ZRANB3 / Fold change vs veh, ZRANB3 / RFU, CUL4A / Fold change vs veh, CUL4A / RFU, CCNY / Fold change vs veh, CCNY / RFU, UFL1 / Fold change vs veh, UFL1 / RFU, COG3 / Fold change vs veh, COG3 / RFU, DIAPH2 / Fold change vs veh, DIAPH2 / RFU, SKA2 / Fold change vs veh, SKA2 / RFU, AFF3 / Fold change vs veh, AFF3 / RFU, LMF1 / Fold change vs veh, LMF1 / RFU, IPO11 / Fold change vs veh, IPO11 / RFU, DFFB / Fold change vs veh, DFFB / RFU, FOXP1 / Fold change vs veh, FOXP1 / RFU, CARD8 / Fold change vs veh, CARD8 / RFU, STRN3 / Fold change vs veh, STRN3 / RFU, ADK / Fold change vs veh, ADK / RFU, RASSF2 / Fold change vs veh, RASSF2 / RFU, WIPF1 / Fold change vs veh, WIPF1 / RFU, LARP1B / Fold change vs veh, LARP1B / RFU, RASA1 / Fold change vs veh, RASA1 / RFU, RB1 / Fold change vs veh, RB1 / RFU, PPFIA1 / Fold change vs veh, PPFIA1 / RFU, MAT2A / Fold change vs veh, MAT2A / RFU, CCT5 / Fold change vs veh, CCT5 / RFU, WDR92 / Fold change vs veh, WDR92 / RFU, CUX1 / Fold change vs veh, CUX1 / RFU, TTC7A / Fold change vs veh, TTC7A / RFU, TMEM135 / Fold change vs veh, TMEM135 / RFU, DEPTOR / Fold change vs veh, DEPTOR / RFU, CPM / Fold change vs veh, CPM / RFU, DNAJB6 / Fold change vs veh, DNAJB6 / RFU, CACNA2D3 / Fold change vs veh, CACNA2D3 / RFU, DTX4 / Fold change vs veh, DTX4 / RFU, TFCP2 / Fold change vs veh, TFCP2 / RFU, GMCL1 /// GMCL1P1 / Fold change vs veh, GMCL1 /// GMCL1P1 / RFU, AEBP2 / Fold change vs veh, AEBP2 / RFU, SNHG1 /// SNORD22 /// SNORD25 /// SNORD26 /// SNORD27 /// SNORD28 /// SNORD29 /// SNORD31 / Fold change vs veh, SNHG1 /// SNORD22 /// SNORD25 /// SNORD26 /// SNORD27 /// SNORD28 /// SNORD29 /// SNORD31 / Fold change (Aza/veh), C12orf56 (ProbeSet 11735607_a_at) / Fold change (ACY-1035/veh), C12orf56 (ProbeSet 11735607_a_at) / Fold change (Aza/veh), FGFR1OP (ProbeSet 11751329_s_at) / Fold change (ACY-1035/veh), FGFR1OP (ProbeSet 11751329_s_at) / Fold change (Aza/veh), VPS36 (ProbeSet 11739960_a_at) / Fold change (ACY-1035/veh), VPS36 (ProbeSet 11739960_a_at) / RFU SYPL1 (11715823_x_at) / Fold change /veh SYPL1 (11715823_x_at) / RFU IGFBP7 (11715501_s_at) / Fold change /veh IGFBP7 (11715501_s_at) / RFU REEP3 (11722064_at) / Fold change /veh REEP3 (11722064_at) / RFU IGLL1 (11728026_x_at) / Fold change /veh IGLL1 (11728026_x_at): dose or concentration left out as unconfirmed
Conditions: MV-4-11 cells, 48 hours

`Nc1ccc(-c2cccs2)cc1NC(=O)c1ccc2c(c1)cc(C1CC1)n2CCN1CCOCC1` [ACY-1035] was tested, and the “Fold change /veh IL23R (11748794_a_at)” value was 0.98.

From publication PMC5218480 (PLoS ONE, 2017)
